Laboratory results taken from PMC9329436, “Optimization of the 4-anilinoquin(az)oline scaffold as epidermal growth factor receptor (EGFR) inhibitors for chordoma utilizing a toxicology profiling assay platform” (Scientific Reports, 2022).
Like-named read-outs stand apart in the source and are kept apart here.

Columns and labels:
Type in all cases: biochemical
[1] = biological target: T1, 320 wild-type protein kinases (Homo sapiens, UniProt O15264); details: p38-delta, singlicate
T1 sequence (O15264 1-365): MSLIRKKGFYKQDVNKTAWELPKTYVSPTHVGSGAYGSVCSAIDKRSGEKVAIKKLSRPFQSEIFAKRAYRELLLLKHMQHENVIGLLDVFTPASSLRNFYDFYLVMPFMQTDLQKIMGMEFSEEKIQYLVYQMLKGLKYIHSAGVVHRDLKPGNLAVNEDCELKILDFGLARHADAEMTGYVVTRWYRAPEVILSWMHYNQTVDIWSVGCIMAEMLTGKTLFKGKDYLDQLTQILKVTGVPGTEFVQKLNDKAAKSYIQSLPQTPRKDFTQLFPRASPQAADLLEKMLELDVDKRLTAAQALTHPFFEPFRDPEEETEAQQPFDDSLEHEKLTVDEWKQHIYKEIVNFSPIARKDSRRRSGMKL
Source text: (§1) Table S4. Profiling of two compounds at two concentrations against 320 wild-type protein kinases; singlicate measurement; Residual activities (% of control).

[2] = biological target: 320 wild-type protein kinases (Homo sapiens, UniProt O60674); details: singlicate
Source text: as §1

[3] = biological target: 320 wild-type protein kinases (Homo sapiens, UniProt O96013); details: singlicate
Chain of 320 wild-type protein kinases (Homo sapiens, UniProt O96013) (O96013 whole entry): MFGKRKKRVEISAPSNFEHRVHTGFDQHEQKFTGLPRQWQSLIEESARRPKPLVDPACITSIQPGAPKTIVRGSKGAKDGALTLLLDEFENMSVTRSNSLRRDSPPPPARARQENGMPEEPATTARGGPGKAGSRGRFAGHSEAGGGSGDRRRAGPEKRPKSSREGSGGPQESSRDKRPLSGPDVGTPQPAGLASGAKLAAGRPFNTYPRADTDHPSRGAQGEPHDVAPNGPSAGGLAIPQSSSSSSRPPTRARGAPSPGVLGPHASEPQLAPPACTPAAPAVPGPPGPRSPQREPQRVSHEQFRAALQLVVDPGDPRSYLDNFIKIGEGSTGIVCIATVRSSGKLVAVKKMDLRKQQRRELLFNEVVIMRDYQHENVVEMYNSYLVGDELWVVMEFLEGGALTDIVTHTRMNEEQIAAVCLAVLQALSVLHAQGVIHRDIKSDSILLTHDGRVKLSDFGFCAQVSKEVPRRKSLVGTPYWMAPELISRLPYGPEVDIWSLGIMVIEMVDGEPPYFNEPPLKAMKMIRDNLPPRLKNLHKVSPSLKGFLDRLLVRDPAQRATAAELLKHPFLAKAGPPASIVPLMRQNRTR
Source text: as §1

[4] = biological target: 320 wild-type protein kinases (Homo sapiens, UniProt O96017); details: singlicate
Source text: as §1

[5] = biological target: 320 wild-type protein kinases (Homo sapiens, UniProt P06493); details: singlicate
Chain of 320 wild-type protein kinases (Homo sapiens, UniProt P06493) (P06493 whole entry): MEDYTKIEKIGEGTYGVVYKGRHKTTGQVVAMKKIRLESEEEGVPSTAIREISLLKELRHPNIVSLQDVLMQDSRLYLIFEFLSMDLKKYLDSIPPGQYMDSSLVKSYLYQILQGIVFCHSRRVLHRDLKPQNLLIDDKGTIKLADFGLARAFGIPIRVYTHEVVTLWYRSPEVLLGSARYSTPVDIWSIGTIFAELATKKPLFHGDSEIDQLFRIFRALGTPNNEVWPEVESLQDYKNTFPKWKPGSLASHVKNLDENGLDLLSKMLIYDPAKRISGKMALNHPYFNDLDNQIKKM
Source text: as §1

[6] = biological target: 320 wild-type protein kinases (Homo sapiens, UniProt P34947); details: singlicate
Source text: as §1

[7] = biological target: 320 wild-type protein kinases (Homo sapiens, UniProt P49841); details: GSK3-beta, singlicate
Chain of 320 wild-type protein kinases (Homo sapiens, UniProt P49841) (P49841 whole entry): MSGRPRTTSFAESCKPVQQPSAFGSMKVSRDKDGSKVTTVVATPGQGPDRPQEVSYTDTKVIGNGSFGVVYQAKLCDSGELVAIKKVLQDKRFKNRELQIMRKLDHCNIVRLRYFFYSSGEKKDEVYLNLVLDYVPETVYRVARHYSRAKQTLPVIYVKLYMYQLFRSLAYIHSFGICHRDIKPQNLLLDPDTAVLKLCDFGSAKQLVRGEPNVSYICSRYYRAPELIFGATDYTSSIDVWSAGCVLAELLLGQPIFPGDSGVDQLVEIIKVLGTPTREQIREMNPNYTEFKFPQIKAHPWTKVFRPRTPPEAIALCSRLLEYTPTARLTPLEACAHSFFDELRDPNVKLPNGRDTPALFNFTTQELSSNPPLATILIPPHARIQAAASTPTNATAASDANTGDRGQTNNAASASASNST
Source text: as §1

[8] = biological target: 320 wild-type protein kinases (Homo sapiens, UniProt P53667); details: singlicate
Chain of 320 wild-type protein kinases (Homo sapiens, UniProt P53667) (P53667 whole entry): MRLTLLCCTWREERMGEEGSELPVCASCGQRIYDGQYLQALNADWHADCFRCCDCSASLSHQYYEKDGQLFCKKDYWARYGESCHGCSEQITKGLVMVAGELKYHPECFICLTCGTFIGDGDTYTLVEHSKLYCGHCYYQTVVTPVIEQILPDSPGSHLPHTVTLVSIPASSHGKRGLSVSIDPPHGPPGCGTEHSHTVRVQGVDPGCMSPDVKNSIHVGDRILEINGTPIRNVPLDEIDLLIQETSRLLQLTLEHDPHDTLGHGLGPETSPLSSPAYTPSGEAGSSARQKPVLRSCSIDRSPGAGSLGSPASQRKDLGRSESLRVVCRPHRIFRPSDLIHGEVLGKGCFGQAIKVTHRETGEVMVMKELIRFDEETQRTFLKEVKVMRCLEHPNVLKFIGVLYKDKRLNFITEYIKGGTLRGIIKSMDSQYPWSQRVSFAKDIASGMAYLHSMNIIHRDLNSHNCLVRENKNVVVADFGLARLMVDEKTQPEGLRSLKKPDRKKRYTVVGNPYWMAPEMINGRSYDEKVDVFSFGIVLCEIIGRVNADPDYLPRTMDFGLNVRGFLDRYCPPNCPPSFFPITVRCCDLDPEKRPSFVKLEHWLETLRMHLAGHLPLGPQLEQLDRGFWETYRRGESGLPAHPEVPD
Source text: as §1

[9] = biological target: T2, 320 wild-type protein kinases (Homo sapiens, UniProt P54753); details: singlicate
T2 sequence (P54753 34-998): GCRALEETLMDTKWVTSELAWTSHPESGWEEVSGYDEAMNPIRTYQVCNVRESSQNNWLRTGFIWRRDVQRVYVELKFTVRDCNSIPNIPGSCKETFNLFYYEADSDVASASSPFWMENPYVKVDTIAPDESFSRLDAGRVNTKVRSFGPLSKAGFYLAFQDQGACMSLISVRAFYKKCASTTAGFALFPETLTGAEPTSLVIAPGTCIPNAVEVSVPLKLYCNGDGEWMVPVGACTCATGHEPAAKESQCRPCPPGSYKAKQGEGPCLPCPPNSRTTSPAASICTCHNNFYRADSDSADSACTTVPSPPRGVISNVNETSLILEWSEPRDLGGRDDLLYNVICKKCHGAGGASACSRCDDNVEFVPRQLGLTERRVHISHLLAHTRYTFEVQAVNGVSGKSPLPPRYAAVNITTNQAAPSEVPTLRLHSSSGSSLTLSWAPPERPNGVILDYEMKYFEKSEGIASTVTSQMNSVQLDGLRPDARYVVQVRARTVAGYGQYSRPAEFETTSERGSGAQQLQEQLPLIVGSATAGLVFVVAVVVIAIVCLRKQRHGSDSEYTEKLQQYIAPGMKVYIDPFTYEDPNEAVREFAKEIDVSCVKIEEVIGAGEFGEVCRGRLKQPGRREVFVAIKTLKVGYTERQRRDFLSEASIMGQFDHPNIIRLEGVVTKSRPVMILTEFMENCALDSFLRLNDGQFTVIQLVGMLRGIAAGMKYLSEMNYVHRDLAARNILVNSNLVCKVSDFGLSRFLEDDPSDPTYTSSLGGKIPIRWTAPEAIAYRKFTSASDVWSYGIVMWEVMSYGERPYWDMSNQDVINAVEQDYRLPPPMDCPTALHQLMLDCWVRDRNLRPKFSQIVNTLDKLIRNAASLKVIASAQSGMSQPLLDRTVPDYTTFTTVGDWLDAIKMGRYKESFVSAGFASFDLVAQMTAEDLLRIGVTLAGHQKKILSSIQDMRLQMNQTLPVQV
Source text: as §1

[10] = biological target: 320 wild-type protein kinases (Homo sapiens, UniProt P54756); details: singlicate
Source text: as §1

[11] = biological target: 320 wild-type protein kinases (Homo sapiens, UniProt Q13882); details: BRK, singlicate
Chain of 320 wild-type protein kinases (Homo sapiens, UniProt Q13882) (Q13882 whole entry): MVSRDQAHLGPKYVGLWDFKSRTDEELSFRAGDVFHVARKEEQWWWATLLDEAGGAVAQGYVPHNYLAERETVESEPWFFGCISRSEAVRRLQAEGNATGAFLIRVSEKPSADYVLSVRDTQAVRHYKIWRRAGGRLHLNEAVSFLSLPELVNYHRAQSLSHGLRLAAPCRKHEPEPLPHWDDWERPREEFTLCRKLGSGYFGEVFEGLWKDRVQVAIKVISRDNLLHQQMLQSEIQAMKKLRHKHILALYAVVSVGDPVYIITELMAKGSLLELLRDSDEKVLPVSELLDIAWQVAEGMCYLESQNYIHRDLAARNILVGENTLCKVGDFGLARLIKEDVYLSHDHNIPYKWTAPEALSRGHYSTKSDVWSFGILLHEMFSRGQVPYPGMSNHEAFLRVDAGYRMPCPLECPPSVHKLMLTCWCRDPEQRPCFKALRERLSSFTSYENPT
Source text: as §1

[12] = biological target: 320 wild-type protein kinases (Homo sapiens, UniProt Q8TDX7); details: singlicate
Chain of 320 wild-type protein kinases (Homo sapiens, UniProt Q8TDX7) (Q8TDX7 whole entry): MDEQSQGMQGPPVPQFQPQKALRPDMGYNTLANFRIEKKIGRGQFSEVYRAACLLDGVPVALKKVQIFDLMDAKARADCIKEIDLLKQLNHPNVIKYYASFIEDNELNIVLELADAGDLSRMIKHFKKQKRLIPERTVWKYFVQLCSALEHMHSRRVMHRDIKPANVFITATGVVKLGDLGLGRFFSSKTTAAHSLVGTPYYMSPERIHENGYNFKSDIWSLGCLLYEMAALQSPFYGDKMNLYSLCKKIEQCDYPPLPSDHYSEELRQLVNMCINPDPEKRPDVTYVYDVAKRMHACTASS
Source text: as §1

[13] = biological target: 320 wild-type protein kinases (Homo sapiens, UniProt Q9Y3S1); details: kinase WNK2, singlicate
Chain of 320 wild-type protein kinases (Homo sapiens, UniProt Q9Y3S1) (Q9Y3S1 whole entry): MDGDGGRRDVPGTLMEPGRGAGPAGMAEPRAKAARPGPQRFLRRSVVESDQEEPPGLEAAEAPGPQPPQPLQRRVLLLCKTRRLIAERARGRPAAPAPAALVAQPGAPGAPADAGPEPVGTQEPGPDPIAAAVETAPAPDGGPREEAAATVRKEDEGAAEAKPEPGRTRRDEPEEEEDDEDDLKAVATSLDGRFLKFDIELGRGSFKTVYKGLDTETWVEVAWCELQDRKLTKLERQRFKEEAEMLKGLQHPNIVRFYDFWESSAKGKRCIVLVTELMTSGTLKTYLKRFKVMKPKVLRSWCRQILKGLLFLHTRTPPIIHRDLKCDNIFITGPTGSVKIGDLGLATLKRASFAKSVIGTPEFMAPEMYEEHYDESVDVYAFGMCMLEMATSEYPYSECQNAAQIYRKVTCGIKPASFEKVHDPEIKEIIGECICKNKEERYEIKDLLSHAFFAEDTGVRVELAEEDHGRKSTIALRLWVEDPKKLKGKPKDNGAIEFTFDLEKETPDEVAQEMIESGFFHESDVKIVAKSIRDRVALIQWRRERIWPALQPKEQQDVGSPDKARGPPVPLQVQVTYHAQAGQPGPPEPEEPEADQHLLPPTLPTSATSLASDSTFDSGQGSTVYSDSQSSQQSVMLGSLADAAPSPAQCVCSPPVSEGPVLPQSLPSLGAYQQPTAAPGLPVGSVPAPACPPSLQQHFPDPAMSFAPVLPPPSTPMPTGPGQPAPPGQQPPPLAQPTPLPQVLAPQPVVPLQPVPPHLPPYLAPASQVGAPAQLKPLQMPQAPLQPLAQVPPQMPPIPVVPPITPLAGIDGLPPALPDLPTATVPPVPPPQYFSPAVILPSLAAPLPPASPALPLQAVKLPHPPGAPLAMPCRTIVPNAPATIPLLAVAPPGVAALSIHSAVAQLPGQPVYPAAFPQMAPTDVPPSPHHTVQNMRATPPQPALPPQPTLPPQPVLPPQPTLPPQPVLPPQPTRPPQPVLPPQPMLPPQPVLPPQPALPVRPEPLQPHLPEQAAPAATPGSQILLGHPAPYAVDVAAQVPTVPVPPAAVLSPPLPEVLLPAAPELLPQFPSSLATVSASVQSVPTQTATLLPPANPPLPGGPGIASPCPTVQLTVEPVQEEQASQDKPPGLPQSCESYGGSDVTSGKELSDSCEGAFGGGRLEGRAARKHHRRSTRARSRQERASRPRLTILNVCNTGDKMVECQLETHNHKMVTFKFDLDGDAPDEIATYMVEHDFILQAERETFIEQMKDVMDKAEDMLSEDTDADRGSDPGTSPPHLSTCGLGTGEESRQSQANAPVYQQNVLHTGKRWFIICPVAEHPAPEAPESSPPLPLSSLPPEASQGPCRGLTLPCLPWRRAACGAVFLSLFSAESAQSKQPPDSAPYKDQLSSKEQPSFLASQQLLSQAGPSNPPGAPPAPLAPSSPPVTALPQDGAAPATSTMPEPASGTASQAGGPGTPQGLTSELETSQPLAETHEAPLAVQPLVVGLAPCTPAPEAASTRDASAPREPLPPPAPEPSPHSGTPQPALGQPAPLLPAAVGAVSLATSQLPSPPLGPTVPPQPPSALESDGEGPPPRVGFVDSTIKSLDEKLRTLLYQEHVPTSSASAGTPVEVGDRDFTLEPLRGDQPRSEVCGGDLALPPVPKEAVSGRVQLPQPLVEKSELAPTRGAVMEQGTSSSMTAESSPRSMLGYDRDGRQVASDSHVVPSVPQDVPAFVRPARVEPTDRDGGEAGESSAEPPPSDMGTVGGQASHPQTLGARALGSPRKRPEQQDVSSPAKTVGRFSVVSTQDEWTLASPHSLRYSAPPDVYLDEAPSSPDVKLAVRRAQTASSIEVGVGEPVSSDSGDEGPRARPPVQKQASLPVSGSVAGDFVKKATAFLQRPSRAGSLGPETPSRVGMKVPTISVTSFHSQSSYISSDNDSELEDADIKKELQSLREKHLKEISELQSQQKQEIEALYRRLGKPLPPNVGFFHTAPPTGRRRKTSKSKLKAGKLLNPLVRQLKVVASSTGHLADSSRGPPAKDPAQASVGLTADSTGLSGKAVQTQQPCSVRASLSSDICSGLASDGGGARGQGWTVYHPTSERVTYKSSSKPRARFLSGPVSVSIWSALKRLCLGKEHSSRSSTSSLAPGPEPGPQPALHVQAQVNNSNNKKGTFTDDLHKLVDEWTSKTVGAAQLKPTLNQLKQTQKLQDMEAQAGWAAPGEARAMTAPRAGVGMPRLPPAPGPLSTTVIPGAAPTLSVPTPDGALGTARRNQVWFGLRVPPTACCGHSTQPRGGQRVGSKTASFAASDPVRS
Source text: as §1

SMILES	Residual activity ([1]; 1.0E-06 M)	Residual activity ([1]; 1.0E-07 M)	Residual activity ([2]; JAK2, 1.0E-06 M)	Residual activity ([2]; JAK2, 1.0E-07 M)	Residual activity ([3]; PAK4, 1.0E-06 M)	Residual activity ([3]; PAK4, 1.0E-07 M)	Residual activity ([4]; CHK2, 1.0E-06 M)	Residual activity ([4]; CHK2, 1.0E-07 M)	Residual activity ([5]; CDK1/CycA2, 1.0E-06 M)	Residual activity ([5]; CDK1/CycA2, 1.0E-07 M)	Residual activity ([5]; CDK1/CycB1, 1.0E-06 M)	Residual activity ([5]; CDK1/CycB1, 1.0E-07 M)	Residual activity ([5]; CDK1/CycE1, 1.0E-06 M)	Residual activity ([5]; CDK1/CycE1, 1.0E-07 M)	Residual activity ([6]; GRK5, 1.0E-06 M)	Residual activity ([6]; GRK5, 1.0E-07 M)	Residual activity ([7]; 1.0E-06 M)	Residual activity ([7]; 1.0E-07 M)	Residual activity ([8]; LIMK1, 1.0E-06 M)	Residual activity ([8]; LIMK1, 1.0E-07 M)	also measured
C#Cc1cc(Nc2ncnc3cc(I)ccc23)ccc1Cl [Compound 41]	94 % of control	112 % of control	98 % of control	105 % of control	82 % of control	103 % of control	83 % of control	105 % of control	77 % of control	91 % of control	79 % of control	84 % of control	101 % of control	116 % of control	111 % of control	108 % of control	84 % of control	96 % of control	86 % of control	101 % of control	Residual activity ([9]; EPHB3, 1.0E-06 M): 100 % of control; Residual activity ([9]; EPHB3, 1.0E-07 M): 110 % of control; Residual activity ([10]; EPHA5, 1.0E-06 M): 126 % of control; Residual activity ([10]; EPHA5, 1.0E-07 M): 128 % of control; Residual activity ([11]; 1.0E-06 M): 110 % of control; Residual activity ([11]; 1.0E-07 M): 100 % of control; Residual activity ([12]; NEK7, 1.0E-06 M): 101 % of control; Residual activity ([12]; NEK7, 1.0E-07 M): 129 % of control; Residual activity, WNK2 ([13]; assay conc. 1.0E-06 M): 82 % of control; Residual activity, WNK2 ([13]; assay conc. 1.0E-07 M): 108 % of control
C#Cc1cc(Nc2ncnc3cc(OC)c(OC)cc23)ccc1Cl [Compound 45]	94 % of control	111 % of control	92 % of control	102 % of control	95 % of control	103 % of control	78 % of control	94 % of control	83 % of control	83 % of control	78 % of control	89 % of control	91 % of control	97 % of control	111 % of control	107 % of control	85 % of control	84 % of control	90 % of control	103 % of control	Residual activity ([9]; EPHB3, 1.0E-06 M): 113 % of control; Residual activity ([9]; EPHB3, 1.0E-07 M): 99 % of control; Residual activity ([10]; EPHA5, 1.0E-06 M): 92 % of control; Residual activity ([10]; EPHA5, 1.0E-07 M): 115 % of control; Residual activity ([11]; 1.0E-06 M): 70 % of control; Residual activity ([11]; 1.0E-07 M): 96 % of control; Residual activity ([12]; NEK7, 1.0E-06 M): 107 % of control; Residual activity ([12]; NEK7, 1.0E-07 M): 117 % of control; Residual activity, WNK2 ([13]; assay conc. 1.0E-06 M): 92 % of control; Residual activity, WNK2 ([13]; assay conc. 1.0E-07 M): 97 % of control
